pEC50, pIC50: −log10 of the molar value. Active and inactive are the calls of the source. No cut-off for these calls is given here.
Experiments:
[1] = Drug concentration in lung of African green monkey at lung-deposited dose of 5.9 mg/kg, IT measured after 24 hrs by LC-MS/MS analysis; assay type: ADME, organism-based; settings: chlorocebus aethiops, in vivo, other
[2] = system: Respiratory syncytial virus; assay: Antiviral activity against RSV A2 infected in Normal human bronchial epithelial cells incubated for 3 days by ONE-Glo luciferase assay; assay type: functional, organism-based; settings: A2, Epithelial cell, 72 h
[3] = Prodrug conversion in Normal human bronchial epithelial cells assessed as ((2R,3S,4R,5S)-5-(4-aminopyrrolo[2,1-f][1,2,4]triazin-7-yl)-2-cyano-3,4-dihydroxytetrahydrofuran-2-yl)methyl tetrahydrogen triphosphate formation measured per million cells at 10 uM incubated for 2 hrs by LC-MS/MS analysis; assay type: ADME, cell-based; settings: epithelial cell
[4] = Drug metabolism in Cynomolgous monkey assessed as Cmax of (2R,3S,4R,5S)-5-(4-aminopyrrolo[2,1-f][1,2,4]triazin-7-yl)-3,4-dihydroxy-2-(hydroxymethyl)tetrahydrofuran-2-carbonitrile metabolite at lung-deposited dose of 4 mg/kg, IT measured after 24 hrs by LC-MS/MS analysis; assay type: ADME, organism-based, Macaca fascicularis; settings: cynomolgus monkey, in vivo, other
[5] = Drug metabolism in Cynomolgous monkey assessed as AUC (0 to 24 hrs) of (2R,3S,4R,5S)-5-(4-aminopyrrolo[2,1-f][1,2,4]triazin-7-yl)-3,4-dihydroxy-2-(hydroxymethyl)tetrahydrofuran-2-carbonitrile metabolite at lung-deposited dose of 4 mg/kg, IT measured after 24 hrs by LC-MS/MS analysis; assay type: ADME, organism-based, Macaca fascicularis; settings: cynomolgus monkey, in vivo, other
[6] = system: Respiratory syncytial virus; assay: Antiviral activity against RSV infected in African green monkey assessed as log10 reduction in viral load in BAL at lung-deposited dose of 1.6 to 7.6 mg/kg, IT qd measured after 5 days by RT-qPCR analysis; assay type: functional; settings: dose 1.6-7.6 mg/kg, time 5 day
[7] = Cytotoxicity against MDCK cells by MTS assay; assay type: toxicity, cell-based, Canis lupus familiaris; settings: dog
[8] = Distribution coefficient, log D of compound measured after 30 mins by HPLC/UV analysis; assay type: physicochemical; settings: octanol/water
[9] = Half life in Cynomolgous monkey at 5 mg/kg, iv measured after 30 mins by LC-MS/MS analysis; assay type: ADME, organism-based, Macaca fascicularis; settings: cynomolgus monkey, in vivo
[10] = Prodrug conversion in human H1-HeLa cells assessed as ((2R,3S,4R,5S)-5-(4-aminopyrrolo[2,1-f][1,2,4]triazin-7-yl)-2-cyano-3,4-dihydroxytetrahydrofuran-2-yl)methyl tetrahydrogen triphosphate formation measured per million cells at 0.2 uM measured after 48 hrs by LC-MS/MS analysis; assay type: ADME, cell-based
[11] = Drug metabolism in Cynomolgous monkey assessed as AUC (0 to 24 hrs) of (2R,3S,4R,5S)-5-(4-aminopyrrolo[2,1-f][1,2,4]triazin-7-yl)-3,4-dihydroxy-2-(hydroxymethyl)tetrahydrofuran-2-carbonitrile metabolite at 5 mg/kg, iv measured after 30 mins by LC-MS/MS analysis; assay type: ADME, organism-based, Macaca fascicularis; settings: cynomolgus monkey, in vivo, 0.5 h
[12] = Cytotoxicity against Normal human bronchial epithelial cells; assay type: toxicity, cell-based, Epithelial cell
[13] = system: Respiratory syncytial virus; assay: Antiviral activity against RSV A2 infected in human airway epithelium transwell culture assessed as decrease in viral RNA level by measuring log10 reduction in median viral load at 0.01 uM pretreated at apical side for 3 hrs followed by compound washout and subsequent viral infection at apical side for 3 hrs followed by removal of virus and recurrent addition of compound on day 0 at apical side measured on day 3 by RT-qPCR analysis; assay type: functional; settings: time 75 hrs
[14] = AUC (0 to 24 hrs) in Cynomolgous monkey at 5 mg/kg, iv measured after 30 mins by LC-MS/MS analysis; assay type: ADME, organism-based, Macaca fascicularis; settings: cynomolgus monkey, in vivo
[15] = system: Respiratory syncytial virus; assay: Antiviral activity against RSV A2 infected in Normal human bronchial epithelial cells assessed as inhibition of intracellular virus replication; assay type: functional, organism-based; settings: A2, Epithelial cell
[16] = system: Respiratory syncytial virus; assay: Antiviral activity against RSV infected in African green monkey assessed as reduction in viral replication in BAL at lung-deposited dose of 1.6 to 7.6 mg/kg, IT qd for 6 days measured for 15 days by RT-qPCR analysis relative to control; assay type: functional; set-up: scale not given: the % may be the effect or the level left; settings: dose 1.6-7.6 mg/kg, time 15 day, at 1.6 to 7.6 mg/kg
[17] = Drug concentration in lung of Cynomolgous monkey at lung-deposited dose of 4 mg/kg, IT measured after 24 hrs by LC-MS/MS analysis; assay type: ADME, organism-based, Macaca fascicularis; settings: cynomolgus monkey, in vivo, other
[18] = Prodrug conversion in D-HBE-As cells assessed as ((2R,3S,4R,5S)-5-(4-aminopyrrolo[2,1-f][1,2,4]triazin-7-yl)-2-cyano-3,4-dihydroxytetrahydrofuran-2-yl)methyl tetrahydrogen triphosphate formation measured per million cells at 1 uM measured after 48 hrs by LC-MS/MS analysis; assay type: ADME, cell-based; settings: human
[19] = Drug concentration in lung of Cynomolgous monkey measured per gram of tissue at 5 mg/kg, iv measured after 24 hrs by LC-MS/MS analysis; assay type: ADME, organism-based, Macaca fascicularis; settings: cynomolgus monkey, in vivo
[20] = system: enterovirus D68; assay: Anti-viral activity against EV-D68 (18952) infected in human RD cells by MTS assay; assay type: functional, organism-based; settings: Enterovirus D, 18952, RD
[21] = Drug metabolism in Cynomolgous monkey assessed as half life of (2R,3S,4R,5S)-5-(4-aminopyrrolo[2,1-f][1,2,4]triazin-7-yl)-3,4-dihydroxy-2-(hydroxymethyl)tetrahydrofuran-2-carbonitrile metabolite at 5 mg/kg, iv measured after 30 mins by LC-MS/MS analysis; assay type: ADME, organism-based, Macaca fascicularis; settings: cynomolgus monkey, in vivo, 0.5 h
[22] = Drug metabolism in African green monkey assessed as Cmax of (2R,3S,4R,5S)-5-(4-aminopyrrolo[2,1-f][1,2,4]triazin-7-yl)-3,4-dihydroxy-2-(hydroxymethyl)tetrahydrofuran-2-carbonitrile metabolite at lung-deposited dose of 5.9 mg/kg, IT measured after 24 hrs by LC-MS/MS analysis; assay type: ADME, organism-based; settings: chlorocebus aethiops, in vivo, other
[23] = Selectivity index, ratio of CC50 for Normal human bronchial epithelial cells to EC50 for RSV A2 infected in Normal human bronchial epithelial cells; assay type: toxicity; settings: read-out: Ratio CC50/EC50
[24] = Cmax in Cynomolgous monkey at lung-deposited dose of 4 mg/kg, IT measured after 24 hrs by LC-MS/MS analysis; assay type: ADME, organism-based, Macaca fascicularis; settings: cynomolgus monkey, in vivo
[25] = system: Influenza A virus; assay: Anti-viral activity against Influenza A (H1N1) infected in MDCK cells by MTS assay; assay type: functional, organism-based; settings: H
[26] = system: Respiratory syncytial virus; assay: Antiviral activity against RSV A2 infected in human HEp-2 cells incubated for 4 days by Cell Titer Glo assay; assay type: functional, organism-based; settings: A2, HEp-2, 96 h
[27] = system: Respiratory syncytial virus; assay: Antiviral activity against RSV infected in African green monkey assessed as reduction in viral load in BAL at lung-deposited dose of 1.6 to 7.6 mg/kg, IT qd for 6 days measured on day 11 by RT-qPCR analysis; assay type: functional, organism-based; settings: dose 1.6-7.6 mg/kg, time 11.0 day
[28] = system: Respiratory syncytial virus; assay: Antiviral activity against Fluc-fused RSV A2 infected in Normal human bronchial epithelial cells incubated for 3 days by ONE Glo luciferase assay; assay type: functional, organism-based; settings: A2, Epithelial cell, 72 h
[29] = Drug metabolism in Cynomolgous monkey assessed as Cmax of (2R,3S,4R,5S)-5-(4-aminopyrrolo[2,1-f][1,2,4]triazin-7-yl)-3,4-dihydroxy-2-(hydroxymethyl)tetrahydrofuran-2-carbonitrile metabolite at 5 mg/kg, iv measured after 30 mins by LC-MS/MS analysis; assay type: ADME, organism-based, Macaca fascicularis; settings: cynomolgus monkey, in vivo, 0.5 h
[30] = system: Respiratory syncytial virus; assay: Antiviral activity against RSV A2 infected in H1-HeLa cells assessed as inhibition of intracellular virus replication; assay type: functional, organism-based; settings: human respiratory syncytial virus

With `COC(=O)[C@H](C)N[P@](=O)(OC[C@@]1(C#N)O[C@@H](c2ccc3c(N)ncnn23)[C@H](OC(=O)C(C)C)[C@@H]1OC(=O)C(C)C)Oc1ccccc1` the Drug uptake [1] was 24.6 nmol, the pEC50 [2] was 7.82 and the Drug metabolism [3] was 916 pM. The Cmax [4] was 140 nM, the AUC [5] was 2.55 µM·h and the Activity [6] was 3.6 log10/ml. For the same compound, the CC50 [7] was over 2000 nM, the logD at 0.5 h [8] was 3 and the half-life [9] was 20.4 min. It also gave an amount per cells [10] of 0.84 pmol/10^6 cells, an AUC [11] of 6.03 µM·h and a CC50 [12] of 8.3 µM. For the same compound, the Activity [13] was 0.2 log10/ml, the AUC(0-t) at 0.5 h [14] was 0.962 µM·h and the pIC50 [15] was over 7.42. It also gave an Activity [16] of over 99.99%, a Drug uptake [17] of 20.5 nmol and a Drug metabolism [18] of 113.3 pM. It also gave a Drug uptake [19] of 4.28 nmol/g, a pEC50 [20] of 7.05 and a t1/2 [21] of 8.71 h. The Cmax [22] was 220 nM, the selectivity ratio [23] was 640 and the Cmax [24] was 620 nM. For the same compound, the pEC50 [25] was under 5.70, the pEC50 [26] was 7.34 and the Activity [27] was “Active”. It also gave a pEC50 [28] of over 8.52, a Cmax [29] of 961 nM and a pIC50 [30] of 7.08.
